Biological target: T1, GyrBA-fus (full-length T. thermophilus DNA gyrase GyrB-GyrA fusion) (Thermus thermophilus, UniProt Q5SHZ4+Q5SIL4)
T1 construct: full-length GyrB fused at its C-terminus to the N-terminus of full-length GyrA by a G-D-L linker; N-terminal His10 tag with PreScission site; E. coli BL21(DE3); dimer (A2B2 equivalent) of 320377 Da
Assay: native ESI mass spectrometry
Format: binding
Conditions: 200 mM ammonium acetate pH 7.5; two ADPNP per fusion dimer; ATPase domain (GyrB) site; also in the holoenzyme cryo-EM sample (16.9 Å)

With `Nc1ncnc2c1ncn2[C@@H]1O[C@H](COP(=O)(O)OP(=O)(O)NP(=O)(O)O)[C@@H](O)[C@H]1O` [ADPNP] the “native ESI mass spectrometry” value was “showing the addition of two ADPNP molecules per GyrBA-fus dimer”.

Reference: PMC3763546, “Structural insight into negative DNA supercoiling by DNA gyrase, a bacterial type 2A DNA topoisomerase” (Nucleic Acids Research, 2013)
